Reference: US20230295166A1, “ATR INHIBITORS AND USES THEREOF” (ANTENGENE DISCOVERY LIMITED, priority 2020, published 2023)

Tests used:
LoVo (CCL-229) cells = assay: Tumor cell anti-proliferation assay (CTG assay); assay type: cell-based; details: LoVo human colorectal cancer cells, 96 h, CellTiter-Glo
Description: Assay 2: Tumor Cell Anti-proliferation Assay (CTG Assay)
Human colorectal cancer cells HT-29 (HTB-38) and LoVo (CCL-229) were selected for the CTG assay, the two cell lines were originally obtained from the American Type Culture Collection (ATCC). FBS and appropriate additives were added into base medium to prepare complete medium, then the cell layer was briefly rinsed with 0.25% (w/v) Trypsin-0.038% (w/v) EDTA solution to remove all traces of serum that contains trypsin inhibitor. After that, appropriate volume of Trypsin-EDTA solution was added to flask and cells under an inverted microscope were observed until cell layer was dispersed. At last, appropriate volume of complete growth medium was added and cells were aspirated by gently pipetting. Numbers were collected and counted with Vi-cell XR and cell density was adjusted, cells were seeded into 96-well opaque-walled clear bottom tissue-culture treated plates in the CO2 incubator for 20-24 hours. All the test compounds were at 10 mM in DMSO. Compounds were then added to the cell media in 3-fold serial dilutions, the final DMSO concentration was 0.5%. Plates were incubated for 96 h at 5% CO2, 37° C. Before the measurement, the appropriate volume of CellTiter-Glo Buffer was transferred into the amber bottle containing CellTiter-Glo substrate to reconstitute the lyophilized enzyme/substrate mixture, mixed gently, thereby forming the CellTiter-Glo Reagent (Promega Cat. No. G7573). The plate and its contents were equilibrated to room temperature for approximately 30 minutes, then 100 μL of CellTiter-Glo Reagent was added to the assay plate, the contents were mixed for 2 minutes on an orbital shaker to induce cell lysis, incubated at room temperature for 10 minutes to stabilize luminescent signal. At last the clear bottom was pasted with white back seal and luminescence was recorded with Enspire. IC50 and GI50 values were calculated with XLFit curve fitting software using 4 Parameter Logistic Model Y=Bottom+(Top−Bottom)/(1+(IC50/X)^HillSlope).

ATR kinase = ATR kinase (Homo sapiens (Human), UniProt Q13535); assay: ATR inhibition assay (mobility shift assay, phosphorylation of FAM-RAD17); assay type: biochemical; details: ATR kinase (Eurofins), substrate FAM-RAD17, mobility shift
Description: Assay 1: ATR Inhibition Assay
Detection of ATR kinase activity utilized the Mobility shift assay to measure the phosphorylation of the substrate protein FAM-RAD17 (GL, Cat. No. 514318, Lot. No. P19042-MJ524315). The assay was developed and conducted at Chempartner. All the test compounds were dissolved in 100% DMSO at concentration of 20 mM, then prepare compounds and conducted the assay as follows: • 1) Transfer 80 μl 20 mM compound to 40 μl of 100% DMSO in a 96-well plate. • 2) Serially dilute the compound by transferring 20 μl to 60 μl of 100% DMSO in the next well and so forth for a total of 10 concentrations. • 3) Add 100 μl of 100% DMSO to two empty wells for no compound control and no enzyme control in the same 96-well plate. Mark the plate as source plate. • 4) Transfer 40 μl of compound from source plate to a new 384-well plate as the intermediate plate. • 5) Transfer 60 nl compounds to assay plate by Echo. • 6) Add ATR kinase (Eurofins, Cat. No. 14-953, Lot. No. D14 JP007N) into Kinase base buffer (50 mM HEPES, pH 7.5; 0.0015% Brij-35; 0.01% Triton) to prepare 2× enzyme solution, then add 10 μl of 2× enzyme solution to each well of the 384-well assay plate, incubate at room temperature for 10 min. • 7) Add FAM-RAD17 and ATP (Sigma, Cat. No. A7699-1G, CAS No. 987-65-5) in the kinase base buffer to prepare 2×peptide solution, then add 10 μl to the assay plate. • 8) Incubate at 28° C. for specified period of time. Add 40 μl of stop buffer (100 mM HEPES, pH 7.5; 0.015% Brij-35; 0.2% Coating Reagent #3; 50 mM EDTA) to stop reaction. • 9) Collect data on Caliper. Convert conversion values to inhibition values.
Percent inhibition=(max−conversion)/(max−min)*100 wherein “max” stands for DMSO control; “min” stands for low control.
Fit the data in XLFit excel add-in version 5.4.0.8 to obtain IC50 values. Equation used is:
Y=Bottom+(Top−Bottom)/(1+(IC50/X)^HillSlope) wherein X means concentration in a format not transformed to logarithms.

Chain of ATR kinase (Q13535 whole entry): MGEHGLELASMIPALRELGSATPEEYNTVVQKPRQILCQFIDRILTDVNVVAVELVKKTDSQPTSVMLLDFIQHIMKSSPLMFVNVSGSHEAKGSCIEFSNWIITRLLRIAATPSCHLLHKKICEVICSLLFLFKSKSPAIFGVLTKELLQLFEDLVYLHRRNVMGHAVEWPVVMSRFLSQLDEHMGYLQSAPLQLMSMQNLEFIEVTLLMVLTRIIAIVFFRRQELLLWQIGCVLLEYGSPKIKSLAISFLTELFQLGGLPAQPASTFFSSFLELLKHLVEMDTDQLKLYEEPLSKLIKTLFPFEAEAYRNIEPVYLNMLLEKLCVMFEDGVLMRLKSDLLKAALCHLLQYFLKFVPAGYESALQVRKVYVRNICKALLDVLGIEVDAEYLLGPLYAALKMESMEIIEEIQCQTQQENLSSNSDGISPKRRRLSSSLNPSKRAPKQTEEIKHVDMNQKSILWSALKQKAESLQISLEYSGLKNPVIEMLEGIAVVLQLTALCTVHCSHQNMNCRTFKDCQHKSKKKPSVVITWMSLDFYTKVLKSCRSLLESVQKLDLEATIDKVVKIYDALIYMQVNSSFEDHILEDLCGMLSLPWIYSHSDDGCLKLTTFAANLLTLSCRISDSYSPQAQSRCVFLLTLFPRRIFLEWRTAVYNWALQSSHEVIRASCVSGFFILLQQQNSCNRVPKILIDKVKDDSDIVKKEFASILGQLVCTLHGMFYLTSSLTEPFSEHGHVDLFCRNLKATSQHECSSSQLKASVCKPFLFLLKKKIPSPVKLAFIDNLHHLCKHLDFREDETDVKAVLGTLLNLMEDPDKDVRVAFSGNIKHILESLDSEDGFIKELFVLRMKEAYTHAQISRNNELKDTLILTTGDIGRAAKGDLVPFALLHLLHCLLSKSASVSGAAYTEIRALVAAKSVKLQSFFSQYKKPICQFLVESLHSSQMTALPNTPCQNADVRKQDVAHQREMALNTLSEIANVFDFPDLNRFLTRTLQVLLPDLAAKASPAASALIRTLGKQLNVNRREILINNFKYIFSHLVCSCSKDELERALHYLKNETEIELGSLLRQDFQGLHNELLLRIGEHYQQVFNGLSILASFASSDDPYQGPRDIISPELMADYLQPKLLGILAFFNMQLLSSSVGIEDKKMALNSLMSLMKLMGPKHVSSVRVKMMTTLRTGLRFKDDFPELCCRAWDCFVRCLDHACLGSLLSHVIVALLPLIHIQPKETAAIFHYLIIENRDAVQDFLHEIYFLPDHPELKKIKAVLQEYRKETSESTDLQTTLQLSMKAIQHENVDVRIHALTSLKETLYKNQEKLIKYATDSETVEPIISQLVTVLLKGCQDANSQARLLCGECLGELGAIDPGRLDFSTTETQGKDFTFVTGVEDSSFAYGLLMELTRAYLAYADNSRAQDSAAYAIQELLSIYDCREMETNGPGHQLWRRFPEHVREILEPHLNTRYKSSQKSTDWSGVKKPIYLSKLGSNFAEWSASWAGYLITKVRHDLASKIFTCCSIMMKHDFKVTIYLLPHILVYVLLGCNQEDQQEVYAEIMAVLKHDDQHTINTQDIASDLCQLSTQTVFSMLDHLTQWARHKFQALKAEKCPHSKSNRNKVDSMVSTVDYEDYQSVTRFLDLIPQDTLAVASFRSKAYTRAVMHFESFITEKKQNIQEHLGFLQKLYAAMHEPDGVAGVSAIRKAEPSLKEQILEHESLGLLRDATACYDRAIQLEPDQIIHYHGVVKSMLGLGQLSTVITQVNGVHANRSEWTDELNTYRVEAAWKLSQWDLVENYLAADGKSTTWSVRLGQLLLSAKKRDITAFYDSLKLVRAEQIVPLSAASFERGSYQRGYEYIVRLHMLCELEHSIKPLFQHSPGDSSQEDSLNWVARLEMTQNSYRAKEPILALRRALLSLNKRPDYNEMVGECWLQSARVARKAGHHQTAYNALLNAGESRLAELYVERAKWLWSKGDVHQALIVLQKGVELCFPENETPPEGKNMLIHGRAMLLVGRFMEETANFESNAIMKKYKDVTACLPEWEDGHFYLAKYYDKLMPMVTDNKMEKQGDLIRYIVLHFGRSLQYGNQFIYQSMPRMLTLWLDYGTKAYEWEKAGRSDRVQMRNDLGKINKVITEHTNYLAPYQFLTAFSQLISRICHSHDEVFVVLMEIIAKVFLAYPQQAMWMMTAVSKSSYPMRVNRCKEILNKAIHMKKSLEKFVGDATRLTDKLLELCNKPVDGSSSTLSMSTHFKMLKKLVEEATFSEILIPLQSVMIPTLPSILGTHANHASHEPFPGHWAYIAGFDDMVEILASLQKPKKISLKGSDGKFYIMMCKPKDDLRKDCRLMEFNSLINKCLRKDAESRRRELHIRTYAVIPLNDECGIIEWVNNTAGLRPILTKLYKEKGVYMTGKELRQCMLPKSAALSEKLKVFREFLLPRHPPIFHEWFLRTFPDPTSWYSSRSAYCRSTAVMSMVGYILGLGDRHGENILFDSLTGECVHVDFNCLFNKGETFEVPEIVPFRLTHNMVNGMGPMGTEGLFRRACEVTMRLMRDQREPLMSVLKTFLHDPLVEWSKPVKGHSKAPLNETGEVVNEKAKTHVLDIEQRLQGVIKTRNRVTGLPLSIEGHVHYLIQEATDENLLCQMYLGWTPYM
Chain of ATR kinase (Q8WXE1 whole entry partner): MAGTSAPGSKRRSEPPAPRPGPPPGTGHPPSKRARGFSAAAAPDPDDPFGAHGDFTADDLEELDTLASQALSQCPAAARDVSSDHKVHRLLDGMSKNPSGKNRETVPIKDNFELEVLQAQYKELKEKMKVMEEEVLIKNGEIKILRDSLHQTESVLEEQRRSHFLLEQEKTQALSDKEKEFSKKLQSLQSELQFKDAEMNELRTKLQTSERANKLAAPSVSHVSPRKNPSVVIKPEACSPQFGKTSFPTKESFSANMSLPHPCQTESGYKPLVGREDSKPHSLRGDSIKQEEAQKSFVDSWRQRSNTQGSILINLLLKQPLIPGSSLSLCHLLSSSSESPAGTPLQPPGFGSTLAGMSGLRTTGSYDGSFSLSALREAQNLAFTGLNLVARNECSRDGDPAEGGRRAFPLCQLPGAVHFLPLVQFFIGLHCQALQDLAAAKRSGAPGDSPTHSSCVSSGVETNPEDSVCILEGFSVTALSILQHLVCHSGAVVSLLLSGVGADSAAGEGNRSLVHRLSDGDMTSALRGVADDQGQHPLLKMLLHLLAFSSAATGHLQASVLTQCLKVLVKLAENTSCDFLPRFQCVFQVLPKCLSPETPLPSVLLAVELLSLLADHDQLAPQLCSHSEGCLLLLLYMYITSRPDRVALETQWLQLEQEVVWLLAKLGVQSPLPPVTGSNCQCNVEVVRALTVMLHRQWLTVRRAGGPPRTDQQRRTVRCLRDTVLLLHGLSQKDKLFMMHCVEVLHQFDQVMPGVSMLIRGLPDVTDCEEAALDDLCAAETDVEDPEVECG

Structure (SMILES)	IC50 (LoVo (CCL-229) cells) [µM]	IC50 (ATR kinase) [µM]
C[C@@H]1COCCN1c1cc(C2(S(C)(=O)=O)CC2)c2cnc(-c3ccn[nH]3)n2n1 [Example 30, (R)-3-methyl-4-(4-(1-(methylsulfonyl)cyclopropyl)-7-(1H-pyrazol-5-yl)imidazo[1,5-b]pyridazin-2-yl)morpholine]	0.152	< 0.1
Cc1cc(-c2ncc3c(C4(C#N)CC4)cc(N4CCOC[C@H]4C)nn23)[nH]n1 [Example 63, (R)-1-(7-(3-methyl-1H-pyrazol-5-yl)-2-(3-methylmorpholino)imidazo[1,5-b]pyridazin-4-yl)cyclopropane-1-carbonitrile]	0.0389	< 0.1
Cc1cc(-c2ncc3c(-c4ccnn4C)cc(N4CCOC[C@H]4C)nn23)[nH]n1 [Example 34, (R)-3-methyl-4-(4-(1-methyl-1H-pyrazol-5-yl)-7-(3-methyl-1H-pyrazol-5-yl)imidazo[1,5-b]pyridazin-2-yl)morpholine]	0.023	< 0.1
Cc1cc(-c2nsc3c(S(=O)(=O)C4CC4)cc(N4CCOC[C@H]4C)nc23)[nH]n1 [Example 85, (R)-4-(7-(cyclopropylsulfonyl)-3-(3-methyl-1H-pyrazol-5-yl)isothiazolo[4,5-b]pyridin-5-yl)-3-methylmorpholine]	0.004	< 0.1
Cc1cc(-c2nsc3c(C(C)(C)S(C)(=O)=O)cc(N4CCOC[C@H]4C)nc23)[nH]n1 [Example 56, (R)-3-methyl-4-(3-(3-methyl-1H-pyrazol-5-yl)-7-(2-(methylsulfonyl)propan-2-yl)isothiazolo[4,5-b]pyridin-5-yl)morpholine]	0.019	< 0.1
C[C@@H]1COCCN1c1cc(C(C)(C)C#N)c2snc(-c3ccn[nH]3)c2n1 [Example 53, (R)-2-methyl-2-(5-(3-methylmorpholino)-3-(1H-pyrazol-5-yl)isothiazolo [4,5-b]pyridin-7-yl)propanenitrile]	0.0128	< 0.1
Cc1cc(-c2cnn3c(C4(S(C)(=O)=O)CC4)cc(N4CCOC[C@H]4C)nc23)[nH]n1 [Example 11, (R)-3-methyl-4-(3-(3-methyl-1H-pyrazol-5-yl)-7-(1-(methylsulfonyl)cyclopropyl)pyrazolo[1,5-a]pyrimidin-5-yl)morpholine]	0.384	< 0.1
C[C@@H]1COCCN1c1cc(C(C)(C)S(C)(=O)=O)c2snc(-c3ccn[nH]3)c2n1 [Example 55, (R)-3-methyl-4-(7-(2-(methylsulfonyl)propan-2-yl)-3-(1H-pyrazol-5-yl)isothiazolo[4,5-b]pyridin-5-yl)morpholine]	0.0137	< 0.1
Cc1cc(-c2nsc3c(C4(S(C)(=O)=O)CC4)cc(N4CCOC[C@H]4C)nc23)[nH]n1 [Example 50, (R)-3-methyl-4-(3-(3-methyl-1H-pyrazol-5-yl)-7-(1-(methylsulfonyl)cyclopropyl)isothiazolo[4,5-b]pyridin-5-yl)morpholine]	0.017	< 0.1
Cc1cc(-c2nsc3c(C4(C#N)CCCC4)cc(N4CCOC[C@H]4C)nc23)[nH]n1 [Example 80, (R)-1-(3-(3-methyl-1H-pyrazol-5-yl)-5-(3-methylmorpholino)isothiazolo[4,5-b]pyridin-7-yl)cyclopentane-1-carbonitrile]	0.01	< 0.1
C[C@@H]1COCCN1c1cc(C2(S(C)(=O)=O)CC2)n2ncc(-c3ccn[nH]3)c2n1 [Example 5, (R)-3-methyl-4-(7-(1-(methylsulfonyl)cyclopropyl)-3-(1H-pyrazol-5-yl)pyrazolo[1,5-a]pyrimidin-5-yl)morpholine]	0.516	< 0.1
C[C@@H]1COCCN1c1cc(-c2cccnc2F)n2ncc(-c3ccn[nH]3)c2n1 [Example 6, (R)-4-(7-(2-fluoropyridin-3-yl)-3-(1H-pyrazol-5-yl)pyrazolo[1,5-a]pyrimidin-5-yl)-3-methylmorpholine]	0.803	< 0.1
C[C@@H]1COCCN1c1cc(C2(C#N)CCCCC2)c2cnc(-c3ccn[nH]3)n2n1 [Example 60, (R)-1-(2-(3-methylmorpholino)-7-(1H-pyrazol-5-yl)imidazo[1,5-b]pyridazin-4-yl)cyclohexane-1-carbonitrile]	0.0041	< 0.1
Cc1cc(-c2nsc3c(C4(C(N)=O)CCCC4)cc(N4CCOC[C@H]4C)nc23)[nH]n1 [Example 87, (R)-1-(3-(3-methyl-1H-pyrazol-5-yl)-5-(3-methylmorpholino)isothiazolo[4,5-b]pyridin-7-yl)cyclopentane-1-carboxamide]	0.003	< 0.1
CS(=O)(=O)C1(c2cc(N3C[C@H]4CC[C@@H](C3)O4)nn3c(-c4ccn[nH]4)ncc23)CC1 [Example 32, (1R,5S)-3-(4-(1-(methylsulfonyl)cyclopropyl)-7-(1H-pyrazol-5-yl)imidazo[1,5-b]pyridazin-2-yl)-8-oxa-3-azabicyclo[3.2.1]octane]	0.553	< 0.1
C[C@@H]1COCCN1c1cc(C2(C#N)CC2)c2snc(-c3ccn[nH]3)c2n1 [Example 51, (R)-1-(5-(3-methylmorpholino)-3-(1H-pyrazol-5-yl)isothiazolo[4,5-b]pyridin-7-yl)cyclopropane-1-carbonitrile]	0.0159	< 0.1
Cc1nnn(C)c1-c1cc(N2CCOC[C@H]2C)nn2c(-c3ccn[nH]3)ncc12 [Example 33, (3R)-4-[4-(dimethyl-1H-1,2,3-triazol-5-yl)-7-(1H-pyrazol-5-yl)imidazo[1,5-b]pyridazin-2-yl]-3-methylmorpholine]	0.162	< 0.1
C[C@@H]1COCCN1c1cc(-c2ccnn2C)n2ncc(-c3cccnc3)c2n1 [Example 3, (R)-3-methyl-4-(7-(1-methyl-1H-pyrazol-5-yl)-3-(pyridin-3-yl)pyrazolo[1,5-a]pyrimidin-5-yl)morpholine]		0.1 to 0.5
Cc1cn[nH]c1-c1cnn2c(C3(S(C)(=O)=O)CC3)cc(N3CCOC[C@H]3C)nc12 [Example 14, (R)-3-methyl-4-(3-(4-methyl-1H-pyrazol-5-yl)-7-(1-(methylsulfonyl)cyclopropyl)pyrazolo[1,5-a]pyrimidin-5-yl)morpholine]		> 0.5
C[C@@H]1COCCN1c1cc(C2(S(C)(=O)=O)CC2)n2ncc(-c3ccc[nH]3)c2n1 [Example 8, (R)-3-methyl-4-(7-(1-(methylsulfonyl)cyclopropyl)-3-(1H-pyrrol-2-yl)pyrazolo[1,5-a]pyrimidin-5-yl)morpholine]		< 0.1
C[C@@H]1COCCN1c1cc(C2(S(C)(=O)=O)CC2)n2ncc(-c3cc[nH]c3)c2n1 [Example 9, (R)-3-methyl-4-(7-(1-(methylsulfonyl)cyclopropyl)-3-(1H-pyrrol-3-yl)pyrazolo[1,5-a]pyrimidin-5-yl)morpholine]		< 0.1
C[C@@H]1COCCN1c1cc(C2([S@](C)(=N)=O)CC2)n2ncc(-c3ccn[nH]3)c2n1 [Example 7a, (R)-imino(methyl)(1-(5-((R)-3-methylmorpholino)-3-(1H-pyrazol-5-yl)pyrazolo[1,5-a]pyrimidin-7-yl)cyclopropyl)-λ6-sulfanone]		< 0.1
